Source: ChEMBL document CHEMBL5523719, “Structure-activity relationship study of new carbazole sulfonamide derivatives as anticancer agents with dual-target mechanism” (Eur J Med Chem, 2024)
Activity calls are given as the source filed them. The calls are words filed in the database; no cut-off is given here.

How the values were obtained:
[1] = system: L02; experiment: Antiproliferation activity against human L02 cells measured after 72 hrs incubation by MTT assay; type: functional, cell-based; details: L02, 72 h
[2] = system: MCF7; experiment: In vivo antitumor activity against human MCF7 cells xenografted in BALB/c mouse assessed as inhibition of Ki-67 expression treated at 5 mg/kg, iv every other day for 26 days; type: functional, organism-based; details: time 26.0 day
[3] = Toxicity in BALB/c mouse xenografted with human MCF7 cells assessed as lesions in lung at 5 mg/kg, iv every other day for 26 days by H and E staining based assay; type: organism-based; details: in vivo, 624 h, time 26 day
[4] = Toxicity in BALB/c mouse xenografted with human MCF7 cells assessed as lesions in kidney at 5 mg/kg, iv every other day for 26 days by H and E staining based assay; type: organism-based; details: in vivo, 624 h, time 26 day
[5] = system: MCF7; experiment: In vivo antitumor activity against human MCF7 cells xenografted in BALB/c mouse assessed as decrease in tumor volume treated at 5 mg/kg, iv every other day for 26 days relative to control; type: functional; details: MCF7, 624 h, time 26 day
[6] = system: KB; experiment: Antiproliferation activity against human KB cells measured after 72 hrs incubation by MTT assay; type: functional, cell-based
[7] = system: MDA-MB-231; experiment: Antiproliferation activity against human MDA-MB-231 cells measured after 72 hrs incubation by MTT assay; type: functional, cell-based; details: MDA-MB-231, 72 h
[8] = Toxicity in BALB/c mouse xenografted with human MCF7 cells assessed as lesions in liver at 5 mg/kg, iv every other day for 26 days by H and E staining based assay; type: organism-based; details: in vivo, 624 h, time 26 day
[9] = system: MCF7; experiment: In vivo antitumor activity against human MCF7 cells xenografted in BALB/c mouse assessed as inhibition of tumor growth treated iv every other day for 26 days; type: functional, organism-based; details: time 26.0 day
[10] = system: MIA PaCa-2; experiment: Antiproliferation activity against human MIA PaCa-2 cells measured after 72 hrs incubation by MTT assay; type: functional, cell-based; details: MIA PaCa-2, 72 h
[11] = system: MCF7; experiment: In vivo antitumor activity against human MCF7 cells xenografted in BALB/c mouse assessed as increase in cleaved caspase-3 treated at 5 mg/kg, iv every other day for 26 days; type: functional, organism-based; details: time 26.0 day
[12] = system: NCI-H460; experiment: Antiproliferation activity against human NCI-H460 cells measured after 72 hrs incubation by MTT assay; type: functional, cell-based; details: NCI-H460, 72 h
[13] = system: MCF7; experiment: In vivo antitumor activity against human MCF7 cells xenografted in BALB/c mouse assessed as decrease in tumor volume treated at 2.5 mg/kg, iv every other day for 26 days relative to control; type: functional; details: MCF7, 624 h, time 26 day
[14] = Toxicity in BALB/c mouse xenografted with human MCF7 cells assessed as lesions in heart at 5 mg/kg, iv every other day for 26 days by H and E staining based assay; type: organism-based; details: in vivo, 624 h, time 26 day
[15] = Toxicity in BALB/c mouse xenografted with human MCF7 cells assessed as lesions in spleen at 5 mg/kg, iv every other day for 26 days by H and E staining based assay; type: organism-based; details: in vivo, 624 h, time 26 day

With `COc1cc(NS(=O)(=O)c2ccc3c(c2)c2ccc(NC(=O)[C@@H](N)C(C)C)cc2n3C)c(OC)cc1Cl.Cl` the IC50 [1] was 43.2 nM, the Activity [2] was “Active” and the Activity [3] was “Non-Toxic”. For the same compound, the Activity [4] was “Non-Toxic”, the inhibition in vivo at 5 mg/kg [5] was 66% and the IC50 [6] was 23 nM. The IC50 [7] was 102 nM, the Activity [8] was “Non-Toxic” and the TGI [9] was “Dose-Dependent Effect”. The IC50 [10] was 72.1 nM, the Activity [11] was “Active” and the IC50 [12] was 41.6 nM. The inhibition in vivo at 2.5 mg/kg [13] was 38%, the Activity [14] was “Non-Toxic” and the Activity [15] was “Non-Toxic”.
